Reference: paper PMC8931322 (Proceedings of the National Academy of Sciences of the …, 2022)

Legend:
Assay type in all cases: cell-based
BIN2/AtSK21 = target: T1, BIN2/AtSK21 (Arabidopsis thaliana, UniProt Q39011); experiment: CETSA melting curve, Western blot; details: intact cells, 250 µM bikinin, 30 min
T1 sequence (Q39011 1-380): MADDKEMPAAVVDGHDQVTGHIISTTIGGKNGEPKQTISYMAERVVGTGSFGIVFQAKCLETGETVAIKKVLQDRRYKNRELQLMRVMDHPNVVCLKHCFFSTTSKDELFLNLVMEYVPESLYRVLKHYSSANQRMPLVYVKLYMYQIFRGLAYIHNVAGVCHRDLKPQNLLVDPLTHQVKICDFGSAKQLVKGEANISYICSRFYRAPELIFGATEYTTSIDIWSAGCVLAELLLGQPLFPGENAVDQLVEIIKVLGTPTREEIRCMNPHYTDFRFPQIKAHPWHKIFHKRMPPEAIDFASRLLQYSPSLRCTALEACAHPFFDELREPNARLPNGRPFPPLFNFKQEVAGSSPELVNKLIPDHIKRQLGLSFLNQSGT

AtSK41 = target: T2, AtSK41 (Arabidopsis thaliana, UniProt Q39019); experiment: CETSA melting curve, Western blot; details: intact cells, 250 µM bikinin, 30 min
T2 sequence (Q39019 1-421): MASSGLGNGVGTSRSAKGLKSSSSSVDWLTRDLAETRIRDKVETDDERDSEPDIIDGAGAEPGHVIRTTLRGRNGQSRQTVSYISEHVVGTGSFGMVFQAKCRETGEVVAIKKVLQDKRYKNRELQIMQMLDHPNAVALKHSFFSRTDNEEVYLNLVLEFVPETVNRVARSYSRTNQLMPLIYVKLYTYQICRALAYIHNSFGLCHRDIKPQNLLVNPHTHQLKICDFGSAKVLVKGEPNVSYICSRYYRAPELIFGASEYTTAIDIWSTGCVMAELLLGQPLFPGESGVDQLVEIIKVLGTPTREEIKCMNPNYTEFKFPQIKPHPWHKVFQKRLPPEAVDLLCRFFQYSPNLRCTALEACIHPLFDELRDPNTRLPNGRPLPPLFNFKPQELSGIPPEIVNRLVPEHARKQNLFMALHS

AtSK12 = target: T3, AtSK12 (Arabidopsis thaliana, UniProt P43289); experiment: isothermal dose-response CETSA
T3 sequence (P43289 2-409): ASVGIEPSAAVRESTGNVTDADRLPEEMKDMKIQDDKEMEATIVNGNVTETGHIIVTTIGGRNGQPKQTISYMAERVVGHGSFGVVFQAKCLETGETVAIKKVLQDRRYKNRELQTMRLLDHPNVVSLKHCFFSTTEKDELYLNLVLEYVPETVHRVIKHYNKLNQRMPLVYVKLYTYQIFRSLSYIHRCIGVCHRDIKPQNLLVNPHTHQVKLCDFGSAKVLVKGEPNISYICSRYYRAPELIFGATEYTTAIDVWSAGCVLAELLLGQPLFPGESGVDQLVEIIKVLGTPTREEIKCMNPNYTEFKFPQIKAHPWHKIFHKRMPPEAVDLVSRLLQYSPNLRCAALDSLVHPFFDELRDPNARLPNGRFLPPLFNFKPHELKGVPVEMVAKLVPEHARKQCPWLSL

AtSK11 = target: T4, AtSK11 (Arabidopsis thaliana, UniProt P43288); experiment: CETSA melting curve, Western blot; details: intact cells, 250 µM bikinin, 30 min
T4 sequence (P43288 2-405): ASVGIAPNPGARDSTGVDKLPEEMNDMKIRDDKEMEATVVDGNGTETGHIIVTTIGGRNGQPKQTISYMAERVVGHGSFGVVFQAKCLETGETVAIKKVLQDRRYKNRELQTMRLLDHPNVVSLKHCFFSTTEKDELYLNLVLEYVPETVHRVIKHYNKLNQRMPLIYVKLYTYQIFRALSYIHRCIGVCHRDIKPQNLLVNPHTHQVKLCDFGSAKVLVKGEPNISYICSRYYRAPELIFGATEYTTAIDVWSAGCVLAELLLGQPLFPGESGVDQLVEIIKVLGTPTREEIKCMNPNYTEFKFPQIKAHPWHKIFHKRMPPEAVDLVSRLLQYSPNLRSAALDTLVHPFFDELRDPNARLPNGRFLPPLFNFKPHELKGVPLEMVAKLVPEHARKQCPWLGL

AtSK22 = target: T5, AtSK22 (Arabidopsis thaliana, UniProt Q39012); experiment: CETSA melting curve, Western blot; details: intact cells, 250 µM bikinin, 30 min
T5 sequence (Q39012 2-407): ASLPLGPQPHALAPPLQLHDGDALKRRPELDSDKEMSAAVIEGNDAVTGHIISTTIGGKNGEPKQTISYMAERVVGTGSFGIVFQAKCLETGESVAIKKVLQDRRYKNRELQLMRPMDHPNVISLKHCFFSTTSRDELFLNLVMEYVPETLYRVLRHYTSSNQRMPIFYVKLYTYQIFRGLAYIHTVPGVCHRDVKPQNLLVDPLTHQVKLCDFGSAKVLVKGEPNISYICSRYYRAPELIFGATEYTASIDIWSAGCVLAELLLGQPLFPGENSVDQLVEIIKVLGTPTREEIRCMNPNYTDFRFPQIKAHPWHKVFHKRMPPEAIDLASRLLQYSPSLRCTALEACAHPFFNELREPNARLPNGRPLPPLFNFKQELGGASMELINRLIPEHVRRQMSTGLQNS

## O=C(O)CCC(=O)Nc1ccc(Br)cn1 [bikinin]
BIN2/AtSK21
  Tm shift: BIN2/AtSK21, AtSK22, and AtSK41 showed Tm shifts
AtSK41
  Tm shift: BIN2/AtSK21, AtSK22, and AtSK41 showed Tm shifts
AtSK12
  EC50: ~70 µM
AtSK11
  Tm shift: AtSK11, AtSK12, AtSK13, BIN2/AtSK21, AtSK22, and AtSK41 showed Tm shifts
AtSK22
  Tm shift: BIN2/AtSK21, AtSK22, and AtSK41 showed Tm shifts
